Test results taken from a melting point compilation (Tetko et al.; mined from patent text by program, amines drawn as free bases though some values may be those of a salt).

Row | Structure (SMILES) | melting point [°C]
1 | Clc1ccc(N=Cc2ccc(Cl)c3cc(Cl)cnc23)c(Cl)c1 | 156
2 | COC(=O)c1ccc2c(=O)n(CC(C)C)c(CNC(=O)OC(C)(C)C)c(-c3cccc(F)c3)c2c1 | 206 to 208
3 | CC1CC(=O)c2cc([N+](=O)[O-])c(F)cc2O1 (stereo unspecified) | 139 to 141
4 | CNC1=NS(=O)N=C1CCS (stereo unspecified) | 191 to 193
5 | CC1CC2C3CCC4=CC(=O)CCC4=C3CCC2(C)C1O (stereo unspecified) | 146 to 148
6 | CCOC(=O)c1ncn2c1CN=C(c1ccccc1)c1cc(C#CC(C)(C)C)ccc1-2 | 155 to 156
7 | CC(C)NC(=O)N1CCc2[nH]cnc2C1C(C)C (stereo unspecified) | 202
8 | CC(C)n1nc(-c2nc(-c3nc(-c4ccccc4)cs3)c(N)nc2-c2ccccc2)ccc1=O | 240 to 242
9 | CC(C)(C)c1cc(C(N)=O)cc(C(C)(C)C)c1O | 263 to 265
10 | O=CC=Cc1cnc(-c2ccccc2)s1 | 104
11 | C#Cc1cccc(-c2cccnc2F)c1 | 45 to 47
12 | CC(CF)(CF)C(=O)C=Cc1ccccc1 | 45
13 | Cn1c(CNC(=O)c2cc3ccccc3[nH]2)c(-c2ccccc2)c2cc(Cl)ccc2c1=O | > 305
14 | CC(=O)C1=C(O)C(=C(C)Nc2cccc(NC(=O)C(O)CO)c2)C(=O)OC1=O (stereo unspecified) | 218
15 | O=C(O)CCCCCSc1ccc(NS(=O)(=O)c2ccc(Cl)cc2)cc1 | 160 to 163
16 | S=C(NCc1ccc2c(c1)OCO2)N1CCc2c([nH]c3ccccc23)C1c1ccc2c(c1)OCO2 (stereo unspecified) | 97 to 100
17 | C[C@@H](S[C@H]1CO[C@H](/C=C/C=C/c2ccc(OCC(F)(F)C(F)F)cc2)OC1)[C@](O)(Cn1cncn1)c1ccc(F)cc1F | 75 to 85
18 | CC(=O)OC1CCC2(C)C(=CCC3C2CCC2(C)C(n4ccnc4)=C(C=O)CC32)C1 (stereo unspecified) | 218 to 220
19 | CCOC(=O)CCc1ccc(N[C@@H](CCC(N)=O)C(=O)O)cc1 | 180 to 181
20 | Nc1ncnc2c1cnn2C1CCC(OCC(F)c2ccccc2)C(F)C1 (stereo unspecified) | 209 to 211
21 | C#CCN(C(C)=O)c1cccc(-c2ccc3nnc(C)n3n2)c1 | 195 to 198
22 | O=Cc1csc(Cc2ccccc2)n1 | 78
23 | COc1cccc(CN2CCc3cc(OCc4ccccc4)c(OC)cc3C2)c1 | 71 to 72

Row | Structure (SMILES) | melting point [°C]
24 | CN(C(=O)OC(C)(C)C)c1cc(Sc2cc(C(C)(C)C)c(O)c(C(C)(C)C)c2)ccc1[N+](=O)[O-] | 140 to 141
25 | Cc1cc(C)nc(NC(=O)NS(=O)(=O)c2ccccc2C(=O)N(C)C)c1 | 166 to 168
26 | CN1C(=O)CN(N=Cc2ccccc2)C(c2ccccc2)c2cc(Cl)ccc21 (stereo unspecified) | 157 to 158
27 | CC(=O)Nc1ccc(Cl)c2c1C(=O)C(NC(C)=O)CN2C(C)=O (stereo unspecified) | 206 to 210
28 | CNC(=O)c1ccccc1Nc1nc(Nc2ccc3c(c2)CCCCN3C)ncc1Cl | 170 to 172
29 | COc1ccc(Nc2nc(-c3ccccc3)c(-c3nc4ccccc4c(=O)n3-c3ccc(Cl)cc3)s2)cc1 | 262 to 263
30 | COC(=O)c1ccc(C(=O)NCc2cc(O)cc(O)c2)cc1Cl | 152 to 155
31 | FC(F)(F)c1nc(-c2ccccc2)c(-c2ccccc2)c(N2CCN(c3ccccn3)CC2)n1 | 165 to 167
32 | c1ccc(C2OC3(CCOCC3)c3ccccc32)cc1 (stereo unspecified) | 132 to 134
33 | C=C1c2c(C)c(N3CCN(c4ccc(OC)cc4)CC3)c(C)c(C)c2OC1(C)C | 134 to 136
34 | O=C(O)CCc1cn(Cc2ccc(OCc3cccnc3)cc2)nc1-c1ccccc1 | 112 to 113
35 | COc1cc(C)nc(NC(=O)NS(=O)(=O)c2ccccc2C(O)CF)n1 (stereo unspecified) | 153 to 155
36 | CCOC(=O)/C=C/c1cnc(-c2ccc(O)c(C34CC5CC(CC(C5)C3)C4)c2)nc1 | 226 to 228
37 | Cc1cc(-c2c(F)cc3c(=O)c(C(=O)O)cn4c3c2SC[C@@H]4C)cc(C)n1 | 328 to 331
38 | O=S(=O)(Nc1ccccc1OC1CCCCC1)C(F)(F)F | 83 to 85
39 | Cc1c(Cc2ccc(C(C)C)cc2)c2c(c(C)c1NC(=O)CC(C)(C)C)CC(C)O2 (stereo unspecified) | 179 to 180
40 | CC(C)n1nc(-c2c(NCc3ccncc3)nc(N)nc2-c2ccccc2)ccc1=O | 222
41 | NS(=O)(=O)Oc1cc(C(F)(F)F)cc(C(F)(F)F)c1 | 118 to 120
42 | COc1ccc(C(=O)Nc2ccc(OCc3ccccc3)cc2N)cc1C12CC3CC(CC(C3)C1)C2 | 185
43 | O=C(NCCCCn1ccnc1)c1ccc(Cl)c(Cl)c1 | 86 to 88
44 | Cc1sc(-c2cccnc2)nc1O | 201 to 202
45 | Cc1cccc2c(C(=O)C(=O)NC3=CC(=O)OC3)c(C)n(Cc3ccc(Cl)cc3)c12 | 283 to 285

Second part, the compound after the results:

Row | melting point [°C] | Structure (SMILES)
46 | 185 | O=c1oc2c(c(O)c1-c1ccccc1)CCCC2c1ccccc1 (stereo unspecified)
47 | 210 to 212 | CCOC(=O)N1CC2(C1)N=C(N)c1c(F)cccc1N2
48 | 132 to 133 | C1=C(c2ccc3c(c2)OCCO3)CCC(N2CCN(Cc3ccccc3)CC2)C1 (stereo unspecified)
49 | 172 | Cc1cc(NC(=O)c2ccn3c2CSC3c2cccnc2)c2ccccc2c1 (stereo unspecified)
50 | 122 to 125 | Cn1nc(-c2ccccc2S(=O)(=O)Cl)oc1=O
51 | 183 to 186 | OC1CCC2(c3c[nH]cn3)Cc3ccccc3C12 (stereo unspecified)
52 | 58.5 to 59.5 | Cc1cccc(C)c1OC(=O)[C@H](C)[C@@H](O)C(C)C
53 | 70 to 72 | CC(=O)C=C1C=C(C(C)(C)C)C(=O)C(C(C)(C)C)=C1
54 | 68 to 70 | Cc1nc2n(c1CCN(C)C)CCCC2OCc1ccccc1 (stereo unspecified)
55 | 222 to 225 | O=c1cc(SCc2ccc(O)cc2)oc2cc(O)cc(O)c12
56 | 159 | CC1CCCC(C)N1S(=O)(=O)N[C@@H](Cc1ccc(NC(=O)c2c(Cl)cccc2Cl)cc1)C(=O)O (stereo partly specified)
57 | 141 to 143 | CCCCCCCCCCCCCCCCCCCCCC(=O)Nc1ccn(C2OC(CO)C(O)C2O)c(=O)n1 (stereo unspecified)
58 | 115 to 117 | CNc1cc(Oc2nn(C)c(C(F)(F)F)c2Cl)ccc1C#N
59 | 233 | Cc1cc2c(cc1Cl)NC(=O)C2(N)c1ccccc1Cl (stereo unspecified)
60 | 120 | COc1ccc2ccc(OC)c3c2c1CCC3CCNC(=O)C1CC1 (stereo unspecified)
61 | 93 to 94 | C[C@@]1(Cn2cc([N+](=O)[O-])nc2Br)CO1
62 | 124 to 125 | CCOC(=O)N=C1N(c2c(C)cccc2C)CC(C)N1c1c(C)cccc1C (stereo unspecified)
63 | 80 | CC(c1ccccc1)C(CS)C(=O)NC(Cc1ccc(O)cc1)C(=O)O (stereo unspecified)
64 | 102 to 103 | Brc1cccc2c1Cc1ccccc1-2

Row | melting point [°C] | Structure (SMILES)
65 | 153 to 156 | O=C(NNS(=O)(=O)c1ccccc1)c1ccnc2ccccc12
66 | 47 to 50 | CC(C)(C)c1ccc(Oc2nc(Nc3cccc(CO)c3)nc(Oc3ccccc3)n2)cc1
67 | 91 to 92 | CCOCOC(CCC(C(=O)NC)C(C)C(O)c1ccccc1)c1ccc(F)cc1 (stereo unspecified)
68 | 279 to 281 | CC(C)n1c(=O)nc(-c2cnc3ccccc3c2)c2cc3c(cc21)OCO3
69 | 68 to 71 | CC(C)OC1CCC(=O)N1 (stereo unspecified)
70 | 98 to 102 | Oc1cc2ccccc2c(Br)c1O
71 | 165 to 167 | Clc1ccc(-c2cc(C3CCN(CCCc4ccccc4)CC3)n[nH]2)cc1
72 | 197 to 199 | Oc1cccc(C#Cc2ccc3ccc(Br)cc3n2)c1
73 | 42 to 48 | O=C(O)CCCC/C=C(\c1ccc(-c2nc(C(=O)NCCCCCOc3ccccc3)co2)cc1)c1cccnc1
74 | 172 to 173 | N/C(=C1/Sc2ccc(Cl)cc2C1=O)c1ccccc1
75 | 120 to 121 | CC(C)c1nccc2c(CO)cccc12
76 | 147 | CC(C)(C=O)C(O)(COc1cccc2ccccc12)Cn1ccnc1 (stereo unspecified)
77 | 138 to 140 | CSCCOc1cc(N)c(Cl)cc1C(=O)O
78 | 196 to 210 | CCn1cc(C(=O)O)c(=O)c2cc(F)c(N3CC(C)(NC(=O)C(F)(F)F)C3)c(F)c21
79 | 60 to 62 | CS(=O)(=O)OC1CCc2ccccc2C1 (stereo unspecified)
80 | 169 to 170 | Cn1ncnc1COc1nn2c(-c3cccc(F)c3)nncc2c1-c1ccccc1F
81 | 159 | CC(C)c1ccc(-c2cn(C)cc(-c3ccccc3)c2=O)cc1
82 | 172 to 174 | CN(C)C(=O)C1CCC2C(=O)N(c3ccccc3)C(=O)N12 (stereo unspecified)
83 | 63 to 65 | CC(CSSc1nc2ccccc2s1)SSc1nc2ccccc2s1 (stereo unspecified)

Row | melting point [°C] | Structure (SMILES)
84 | 53 to 57 | COc1cccc(CC[C@H]2CNCCN2)c1
85 | 74 to 75 | Cc1ccc(CCOc2ccc(N)cc2)nc1
86 | 139 to 140 | O=C(O)CCc1cc(OCCCCc2cc(-c3ccc(C(F)(F)F)cc3)no2)nn1-c1ccccc1
87 | 244 to 246 | COc1cc2ccc(-c3ccccc3[N+](=O)[O-])cc2cc1OC
88 | 195 to 197 | O=S(=O)(Cl)c1ccc2c(S(=O)(=O)Cl)cc(S(=O)(=O)Cl)cc2c1
89 | 121 to 123 | O=C1OC(CCl)CN1c1ccc(S(=O)(=O)C(F)(F)F)cc1 (stereo unspecified)
90 | 125 to 131 | COc1cc(OCc2ccccn2)ccc1/C=C/c1cc(/C=C/c2cc([N+](=O)[O-])c3cc[nH]c3c2)[nH]n1
91 | 150 to 151 | Cc1ccc(C(O)(Cc2nnnn2C)c2ccc(C)cc2F)c(F)c1
92 | 135 to 137 | CSc1ccc(-c2cnn(-c3ccc(F)cc3)c(=O)c2OC(C)C)cc1
93 | 94 | O=C(O)CCCCCCCCCCSSCCCCCCCCCCC(=O)O
94 | 84 | CCOc1nc(Br)cnc1N
95 | 101 to 102 | CCOC(=O)c1cccc(-c2nccc(OCCc3ccc(OC)c(OC)c3)n2)c1
96 | 195 to 197 | CCOC(=O)[C@H](C)N[P@@]1(=O)OC[C@H]2O[C@@H](n3cnc4c(OCC)nc(N)nc43)[C@](C)(F)[C@@H]2O1
97 | 122 to 123 | Cc1cc(OCCc2nc(-c3ccc(-c4ccccc4)cc3)oc2C)ccc1OC(C)(C)C(=O)O
98 | 47 to 50 | Nc1c(F)cc(Cl)c2c1CCCO2
99 | 169 to 171 | CCC1c2ccc(F)n2-c2ccc(F)cc2N1S(=O)(=O)c1ccc(O)cc1 (stereo unspecified)
100 | 189 to 191 | CCOC(=O)c1cn(C)c2cc(Br)ccc2c1=O
101 | 72.5 to 74 | CC(C)Oc1cc(-n2nc(C(C)(C)C)oc2=O)ccc1F
